According to patent US20230340012A1, “NATURAL AND SYNTHETIC COMPOUNDS FOR TREATING CANCER AND OTHER DISEASES” (PACIFIC ARROW LIMITED, priority 2009, published 2023):

Columns and labels:
[1] = test system: U2OS; assay: MTT assay, bone (U2OS); format: cell-based, human
Protocol: (§1) Cells. HTB-9 (bladder), HeLa-S3 (cervix), DU145 (prostate), H460 (lung), MCF-7 (breast), K562 (leukemia), HCT116 (colon), HepG2 (liver), U2OS (bone), T98G (brain), SK-MEL-5 (Skin) and OVCAR 3, ES2 (ovary), Pancreas (Capan), Mouth (KB), Kidney(A498).
(§2) MTT Assay. The procedure for MTT assay followed the method described by Carmichael et al. (1987) with modifications. The cells were seeded into a 96-well plate at for 24 hours before drug-treatment. The cells were then exposed to the drugs for 48, 72, or 96 hours. After the drug-treatment, MTT (0.5 mg/mL) was added to cultures and incubated for an hour. The formazan (product of the reduction of tetrazolium by viable cells) formed and was dissolved with DMSO and the O.D. at 490 nm, and was measured by an ELISA reader. The MTT level of the cells before drug-treatment was also measured (T0). The % cell-growth (%G) is calculated as: %G = (TD-T0 / TC-T0) x 100(1), where TC or TD represents O.D. readings of control or drug-treated cells. When T0 > TD, then the cytotoxicity (LC) expressed as % of the control is calculated as: %LC = (TD-T0 / T0) × 100(2).

[2] = test system: HCT116; assay: MTT assay, colon (HCT116); format: cell-based, human
Protocol: as §1, §2

[3] = test system: Capan; assay: MTT assay, pancreas (Capan); format: cell-based, human
Protocol: as §1, §2
• A. Cells: Capan cells are derived from Human pancreas carcinoma (pancreas). Cells were grown in RPMI 1640 medium supplemented with 10% FCS, antibiotics and glutamine. 10000 cells were seeded in a well (96-welled plate) for one day before drug-treatment • B. Drug treatment: • -- Drug: Tig-S (stored as a 1000x stock solution in DMSO) was used. • -- Drug concentration used: from 0.15 - 20 ug/ml. • -- Drug-treatment was carried out for 3 days. • C. At the end of the drug-treatment, cytotoxic test was performed with MTT assay. The percentage of drug-treated cells’ growth as compared to those of the no drug control is determined.

[4] = test system: DU145; assay: MTT assay, prostate (DU145); format: cell-based, human
Protocol: as §1, §2

[5] = test system: SK-Mel-5; assay: MTT assay, skin (SK-Mel-5); format: cell-based, human
Protocol: as §1, §2

[6] = test system: T98G; assay: MTT assay, brain (T98G); format: cell-based, human
Protocol: as §1, §2

[7] = test system: K562; assay: MTT assay, leukemia (K562); format: cell-based, human
Protocol: as §1, §2

[8] = test system: ES2 cells; assay: Inhibition of cell adhesion, ES2; format: cell-based, human; settings: for ES2 cells attached to flasks compared to no drug controls / unattached cells alive: 5 ug/ml; for ES2 cells attached to flasks compared to no drug controls: 5 hours; for unattached cells alive: trypan Blue exclusion; for unattached cells alive / cells attached to flasks: ES2 or Hey8A; for cells attached to flasks: 10 ug/ml
Protocol: (§3) Methods and Results. ES2 or Hey8A cells were plated in T25 flasks with medium containing 5 ug/ml of compounds selected from structure (2A) including E4A-Tig-R, E4A-Tig-V, E4A-Tig-S, E4A-Tig-N, E4A-Tig-Q, E4A-Tig-T. Cultures were incubated for 5 hours. Attached cells were removed from flasks by trypsinization and the numbers/amounts were counted. Compared to no drug controls, 80 ± 4% of ES2 cells and 60 ± 4% of Hey8A cells were found attached to flasks under this condition. At 5 ug/ml of above compounds, over 90% of unattached cells are alive as determined by the trypan Blue exclusion assay and by their ability to re-attach to flasks when plating in medium without tested compounds. However, with 10 ug/ml tested compounds, less than 40% of cells attached to flasks and many of them are dead cells.

[9] = test system: Hey8A cells; assay: Inhibition of cell adhesion, Hey8A; format: cell-based; settings: 5 ug/ml, 5 hours
Protocol: as §3

[10] = test system: Fibronectin; assay: Fibronectin secretion experiment (Western blot); format: cell-based; settings: bladder, cervix, prostate, lung, breast, leukemia, colon, liver, bone, brain, skin, ovary, pancreas, mouth, kidney cells; 24 hours
Protocol: Western blot is applied in this invention as a method to detect the specific proteins in treated and untreated cells with compounds in this invention, wherein the cells are bladder, cervix, prostate, lung, breast, leukemia, colon, liver, bone, brain, Skin, ovary, Pancreas(Capan), Mouth(KB), Kidney.
Cells: targeted cells were grown in RPMI 1640 medium. 1.5 million cells were seeded in a T25 flask and grown for 24 hours before drug-treatment.
Drug-treatment: Cells cultures were replaced with fresh RPMI medium containing either 2.5 ul of DMSO (as control) [D]; or 10, 20, 30, 40, 80 ug/ml of tested compounds.
After 24 hours, aliquot of culture medium was taken out for Fibronectin determination (Western blot method).
Cell viability at 24 hours was determined by MTT assay. Cultures were replaced with RPMI medium (5 ml) with MTT and incubated for an hour. The formation of formazan was dissolved in 10 ml of DMSO and OD at 570 nm was measured (MTT units). Western Blot: Spent culture medium was mixed with SDS sample buffer, boiled for 3 minutes before loading to SDS gel. Samples were applied to a 6-10% SDS gel and electrophoresis was conducted with 100 volts for 2 hours. Protein was transferred to a nitrocellulose membrane electrophoretically. The nitrocellulose blot was incubated with the first antibody and second antibody (AP conjugated, Promega S3721). The immuno-bands were developed with BCIP/NBT color development system.
Determination of Western blot band intensity: The band-images of Western blot were captured with a digital camera and the intensity of bands was determined using “Image J” software.

[11] = test system: cancer cells; assay: Inhibition of cancer growth, cancer invasion, cell invasion or cancer cell invasion; format: cell-based
Description: The program is based on our purification methods and biological assays including the MTT assay. See International Application No. PCT/US05/31900, filed Sep. 7, 2005, U.S. Serial No. 11/289,142, filed Nov. 28, 2005, and U.S. Serial No. 11/131551, filed May 17, 2005, and PCT/US2008/002086, 1188-ALA-PCT, filed Feb. 15, 2008, 12/344,682, 1020-B1-US, filed Dec. 29, 2008. The details of Analysis of gene expression of ES2 cells after Y-treatment by Microarray, Data Analysis Methods and Western blot in PCT/US2008/002086, 1188-ALA-PCT, filed Feb. 15, 2008, and the cell invasion experiments methods in International Application PCT/US2010/0042240, filed Jul. 16, 2010.

Molecule | IC50 of bone (U2OS) [1] [µg/mL] | IC50 of colon (HCT116) [2] [µg/mL] | IC50 of pancreas (Capan) [3] [µg/mL] | IC50 of prostate (DU145) [4] [µg/mL] | IC50 of skin (SK-Mel-5) [5] [µg/mL] | IC50 of brain (T98G) [6] [µg/mL] | IC50 of leukemia (K562) [7] [µg/mL] | ES2 cells attached to flasks compared to no drug controls [8] [%] | unattached cells alive [8] | cells attached to flasks [8] | Hey8A cells attached to flasks compared to no drug controls [9] [%] | inhibition of fibronectin secretion [10] | anti-cancer activity [11] | IC50, pancreas cancer (Capan) cells' growth ([3]; 3 days)
CC=C(C)C(=O)OCC1(C)C(O)CCC2(C)C1CCC1(C)C2CC=C2C3CC(C)(C)C(O)C(OC(=O)C(C)=CC)C3(COC(=O)C(C)=CC)C(O)CC21C (centres unmarked) [Tig-T] | 20 | 23 | 10 | 16 | 22 | 26 | 9 | 80 ± 4 | over 90% | less than 40% | 60 ± 4 | 20-40% | have anti-cancer activities | –
CC=C(C)C(=O)OCC1(C)C(O)CCC2(C)C1CCC1(C)C2CC=C2C3CC(C)(C)C(O)C(O)C3(CO)C(O)CC21C (centres unmarked) [Tig-N] | 15 | 15 | 8 | 4.8 | 15 | 19 | 6 | 80 ± 4 | over 90% | less than 40% | 60 ± 4 | 20-40% | have anti-cancer activities | –
CC=C(C)C(=O)OCC1(C)C(O)CCC2(C)C1CCC1(C)C2CC=C2C3CC(C)(C)C(OC(=O)C(C)=CC)C(O)C3(CO)C(O)CC21C (centres unmarked) [Tig-S] | 5.2 | 6.6 | 2.9 | 4.3 | 5.8 | 9 | 4.3 | 80 ± 4 | over 90% | less than 40% | 60 ± 4 | 20-40% | have anti-cancer activities | about 1 ug/ml
24,28-O-Tigloyl-3β,16α, 21β, 22a, 24β, 28-hexahydroxyolean-12-ene [Tig-R] | 4.5 | 5.2 | 2.4 | 3.6 | 5.1 | 8 | 2 | 80 ± 4 | over 90% | less than 40% | 60 ± 4 | 20-40% | have anti-cancer activities | –
